Results taken from patent publication US8883773B2, “Cephem compound having pseudo-catechol group” (Shionogi & Co., Ltd., priority 2010, dated 2014).
≈ marks a conversion by molar mass, not a printed value. Like-named read-outs stand apart in the source and are kept apart here.

Experiments:
Type in all cases: cell-based
[1] = test system: Pseudomonas aeruginosa SR24; assay: in vitro antimicrobial activity, MIC by agar plate incubation (Japan Society for Chemotherapy method); conditions: no enzyme, Ceftazidime sensitive strain, 1000 cfu/spot, sensitive disc medium, read-out: Minimum Inhibitory Concentration (MIC)
Protocol: (§1) Compound (I) of the subject invention has been investigated for in vitro antimicrobial activity thereof.
(§2) (Microbe/Strain Species Nos. 1-4):
(§3) Measurement of Minimum Inhibitory Concentration (MIC: microgram/ml) was conducted according to the standard method of the Japan Society for Chemotherapy, and the amount of bacteria for inoculation was 1000 cfu/spot, and sensitive disc medium was used as the test medium, and conducted using agar plate incubation.
(§4) In the tables, the unit of the values of inhibitory activity is microgram/ml (μg/ml)

[2] = test system: Pseudomonas aeruginosa SR27060; assay: as above; conditions: IMP-1, MBL producing strain (carbapenem resistant strain), 1000 cfu/spot, sensitive disc medium, read-out: Minimum Inhibitory Concentration (MIC)
Protocol: as §1, §2, §3, §4

[3] = test system: Acinetobacter baumannii SR24396; assay: as above; conditions: 1000 cfu/spot, sensitive disc medium, read-out: Minimum Inhibitory Concentration (MIC)
Protocol: as §1, §2, §3, §4

[4] = test system: Klebsiella pneumoniae ATCC 700603; assay: as above; conditions: ATCC700603, SHV-18, ESBL producing strain, 1000 cfu/spot, sensitive disc medium, read-out: Minimum Inhibitory Concentration (MIC)
Protocol: as §1, §2, §3, §4

[5] = test system: Stenotrohomonas maltophilia SR21970; assay: in vitro antimicrobial activity, MIC by agar plate incubation (CLSI method, Mueller-Hinton agar); conditions: L-1, MBL producing strain (carbapenem resistant strain), 10000 cfu/spot, read-out: Minimum Inhibitory Concentration (MIC)
Protocol: as §1
(Microbe/Strain Species Nos. 5):
Measurement of Minimum Inhibitory Concentration (MIC, microgram/ml) was conducted according to the CLSI (Clinical and Laboratory Standards Institute) and the amount of bacteria for inoculation was 10000 cfu/spot, and Mueller-Hinton agar medium was used as the test medium, and conducted using agar plate incubation.
as §4

[6] = SR24396, Acinetobacter baumannii SR24395 (Table 10)

| MIC [1] [µg/mL] | MIC [2] [µg/mL] | MIC [3, 6] [µg/mL] | MIC [4] [µg/mL] | MIC [5] [µg/mL] | MIC ([3]; Acinetobacter baumannii SR24396 (Table 11)) [µg/mL] | Compound |
| --- | --- | --- | --- | --- | --- | --- |
| 0.063 (≈ 0.0857 µM) | 0.25 (≈ 0.34 µM) | 0.25 (≈ 0.34 µM) | 0.25 (≈ 0.34 µM) | 1 (≈ 1.36 µM) |  | CC(C)(O/N=C(\C(=O)N[C@@H]1C(=O)N2C(C(=O)O)=C(C[N+]3(CCNC(=O)c4cc(=O)c(O)cn4O)CCCC3)CS[C@H]12)c1csc(N)n1)C(=O)[O-] [Compound I-6] |
| 0.063 | 0.25 | 0.5 | 0.25 | 1 |  | CC(C)(O/N=C(\C(=O)N[C@@H]1C(=O)N2C(C(=O)[O-])=C(C[N+]3(CCNC(=O)c4cc(=O)c(O)c[nH]4)CCCC3)CS[C@H]12)c1csc(N)n1)C(=O)[O][Na] [Compound I-4] |
| 0.25 (≈ 0.329 µM) | 1 (≈ 1.31 µM) |  | 0.5 (≈ 0.657 µM) | 1 (≈ 1.31 µM) | 0.25 (≈ 0.329 µM) | Nc1nc(/C(=N/O[C@@H](CC(=O)O)C(=O)[O-])C(=O)N[C@@H]2C(=O)N3C(C(=O)O)=C(C[N+]45CCC[C@H]4CN(C(=O)c4cc(=O)c(O)c[nH]4)CC5)CS[C@H]23)cs1 (stereo partly shown) [Compound I-11] |

| Compound | MIC [1] [µg/mL] | MIC [2] [µg/mL] | MIC [3, 6] [µg/mL] | MIC [4] [µg/mL] | MIC [5] [µg/mL] | MIC ([3]; Acinetobacter baumannii SR24396 (Table 11)) [µg/mL] |
| --- | --- | --- | --- | --- | --- | --- |
| CC(C)(O/N=C(\C(=O)N[C@@H]1C(=O)N2C(C(=O)O)=C(C[N+]34CCC(CNC(=O)c5cc(=O)c(O)c[nH]5)(CC3)CC4)CS[C@H]12)c1csc(N)n1)C(=O)[O-] [Compound I-2] | 0.125 (≈ 0.168 µM) | 1 (≈ 1.34 µM) | 1 (≈ 1.34 µM) | 1 (≈ 1.34 µM) |  |  |
